Test results taken from patent US10344017B2, “Pyrrolcarboxamide derivatives for the inhibition of ERK5” (CANCER RESEARCH TECHNOLOGY LIMITED, priority 2014, dated 2019).
Like-named read-outs stand apart in the source and are kept apart here.

Key:
ERK5 = target: T1, ERK5 (Homo sapiens, UniProt Q13164); assay: ERK5 IMAP assay (fluorescence polarisation); assay type: biochemical
T1 construct: made in house

[1] = tested on: ERK5 (HA-ERK5 wt activated by EGFP-MEK5D, MEF2D-Gal4/Gal4-Luc reporter) in HEK293 cells; assay: Dual-luciferase reporter assay (ERK5 reporter), reverse-transfected HEK293 cells; conditions: Homo sapiens, HEK293, read-out: ERK 5 Reporter Assay
Protocol: Dual-Luciferase Reporter Assay
Trypsinizing of Adherent Cell Colonies
Cells were regularly passaged in order to maintain optimum colony sizes on plates. In order to do this, and to harvest cells for use in the dual-luciferase reporter assay, adherent cells were lifted from tissue culture dishes. Cell media was removed via aspiration, and the cell monolayer was washed with phosphate buffered saline (PBS) solution (10 mL), which was then aspirated.
Reverse Transfection of HEK293 Cells
Preparation of EGFP Control (C3) Working Solution (for 1×96 Well Plate)
Preparation of HEK293 Cells for Reverse Transfection
Trypsinized HEK293 cells were re-suspended in 19 mL of fresh cell media and counted using haemocytometry. Cells were then diluted with fresh cell media to achieve a final cell concentration of 2×10^5 cells/mL. 1237.5 μL and 7425 μL of this cell media was added to the C3 and 5D working solutions respectively. 100 μL of the transfected cells were then aliquoted into the appropriate wells in a 96-well opaque sided tissue culture plate, and incubated at 37° C. for 6 h.
Addition of Compounds to HEK293 Cells
4 compounds was assayed per 96-well plate. For each compound, 1 mL of growth media was added to eight 1.5 mL Eppendorf® tubes. 6 μL of DMSO was added to two tubes for C3 and blank 5D wells, and 6 μL of the relevant compound stock solution was added to the 6 remaining tubes. […] Solutions of drug in media were thoroughly mixed, and 100 μL of the relevant compound was transferred (in triplicate) to the 96-well plate containing transfected HEK293 cells using an electronic multichannel pipette with variable tip spacing. Sealed plates were incubated at 37° C. for 24 h. Final compound concentrations were as follows; 30 μM, 10 μM, 3 μM, 1 μM and 0.3 μM.
15 mL of 1× passive lysis buffer (PLB) was prepared using 5×PLB (Dual-Luciferase Reporter Assay System, Promega® E1960), diluting with H2O. Assay plates prepared were removed from the incubator and the growth media removed by aspiration.

[2] = average (e.g. geometric mean) where more than one data point, read-out: ERK5 IC50

T1 sequence (Q13164 whole entry): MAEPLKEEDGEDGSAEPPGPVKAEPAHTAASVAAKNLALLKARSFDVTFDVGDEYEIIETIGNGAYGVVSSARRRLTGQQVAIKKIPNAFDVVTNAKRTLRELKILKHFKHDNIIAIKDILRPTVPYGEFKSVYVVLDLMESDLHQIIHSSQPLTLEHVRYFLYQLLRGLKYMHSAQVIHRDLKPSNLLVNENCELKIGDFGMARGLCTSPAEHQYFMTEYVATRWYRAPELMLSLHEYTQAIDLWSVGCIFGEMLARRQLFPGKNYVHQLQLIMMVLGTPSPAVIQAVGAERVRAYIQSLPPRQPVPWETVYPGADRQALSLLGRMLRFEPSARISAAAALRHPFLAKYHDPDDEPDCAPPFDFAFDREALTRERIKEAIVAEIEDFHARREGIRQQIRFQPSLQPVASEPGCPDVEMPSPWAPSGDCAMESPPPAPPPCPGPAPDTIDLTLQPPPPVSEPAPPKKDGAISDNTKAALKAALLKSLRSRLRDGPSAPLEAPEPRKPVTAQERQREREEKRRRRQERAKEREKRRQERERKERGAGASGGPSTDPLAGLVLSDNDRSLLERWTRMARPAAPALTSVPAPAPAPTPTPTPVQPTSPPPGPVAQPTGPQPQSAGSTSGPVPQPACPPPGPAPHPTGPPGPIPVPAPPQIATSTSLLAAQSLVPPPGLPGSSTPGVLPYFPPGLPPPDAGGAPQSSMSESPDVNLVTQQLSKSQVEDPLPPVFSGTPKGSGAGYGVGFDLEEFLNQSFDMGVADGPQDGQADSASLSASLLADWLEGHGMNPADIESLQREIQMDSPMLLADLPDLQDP

| IC50 (ERK5; [2]) [nM] | IC50 (ERK5) [nM] | SMILES | IC50 [1] [µM] |
| --- | --- | --- | --- |
| 2860 |  | CC(C)(C)OC(=O)N1CCC(NC(=O)c2cc(C(=O)c3c(F)cccc3F)c[nH]2)CC1 [Example 123, tert-Butyl 4-(4-(2,6-difluorobenzoyl)-1H-pyrrole-2-carboxamido)piperidine-1-carboxylate] | 25 |
|  | 602 | O=C(Nc1ccncc1)c1cc(C(=O)c2c(F)cccc2Cl)c[nH]1 [Example 187, 4-(2-Chloro-6-fluorobenzoyl)-N-(pyridin-4-yl)-1H-pyrrole-2-carboxamide] | 2.33 |
| 156 |  | CN1CCC(NC(=O)c2cc(C(=O)c3c(F)ccc(Cl)c3F)c[nH]2)CC1 [Example 213, 4-(3-Chloro-2,6-difluorobenzoyl)-N-(1-methylpiperidin-4-yl)-1H-pyrrole-2-carboxamide] | 3.51 |
| 1710 |  | O=C(NC1CCNCC1)c1cc(C(=O)c2cccc(Cl)c2Cl)c[nH]1 [Example 160, 4-(2,3-Dichlorobenzoyl)-N-(piperidin-4-yl)-1H-pyrrole-2-carboxamide] | 30 |
| 1130 |  | CN1CCC(NC(=O)c2cc(C(=O)c3c(F)cccc3F)c[nH]2)CC1 [Example 129, 4-(2,6-Difluorobenzoyl)-N-(1-methylpiperidin-4-yl)-1H-pyrrole-2-carboxamide] | 6 |
| 5680 |  | O=C(Nc1cccnc1)c1cc(C(=O)c2c(F)cccc2C(F)(F)F)c[nH]1 [Example 184, 4-(2-Fluoro-6-(trifluoromethyl)benzoyl)-N-(pyridin-3-yl)-1H-pyrrole-2-carboxamide] | 10.3 |
| 487 |  | O=C(NC1CCNCC1)c1cc(C(=O)c2c(F)cccc2Cl)c[nH]1 [Example 3, 4-(2-Chloro-6-fluorobenzoyl)-N-(piperidin-4-yl)-1H-pyrrole-2-carboxamide] | 3.5 |
| 123 |  | O=C(Nc1cnn(C2CCNCC2)c1)c1cc(C(=O)c2c(F)cccc2Cl)c[nH]1 [Example 52, 4-(2-Chloro-6-fluorobenzoyl)-N-(1-(piperidin-4-yl)-1H-pyrazol-4-yl)-1H-pyrrole-2-carboxamide] | 8.81 |
| 91.5 |  | CN1CCN(c2ccc(NC(=O)c3cc(C(=O)c4c(F)cccc4Cl)c[nH]3)cn2)CC1 [Example 31, 4-(2-Chloro-6-fluorobenzoyl)-N-(6-(4-methylpiperazin-1-yl)pyridin-3-yl)-1H-pyrrole-2-carboxamide] | 1.18 |
| 1400 |  | Cc1cccc(F)c1C(=O)c1c[nH]c(C(=O)NC2CCNCC2)c1 [Example 191, 4-(2-Fluoro-6-methylbenzoyl)-N-(piperidin-4-yl)-1H-pyrrole-2-carboxamide] | 19.5 |
| 87.8 |  | CC(=O)N1CCC(NC(=O)c2cc(C(=O)c3c(Cl)ccc(Cl)c3F)c[nH]2)CC1 [Example 7, N-(1-Acetylpiperidin-4-yl)-4-(3,6-dichloro-2-fluorobenzoyl)-1H-pyrrole-2-carboxamide] | 0.968 |
| 199 |  | CN1CCC(NC(=O)c2cc(C(=O)c3c(F)cccc3Cl)c[nH]2)CC1 [Example 192, 4-(2-Chloro-6-fluorobenzoyl)-N-(1-methylpiperidin-4-yl)-1H-pyrrole-2-carboxamide] | 3.01 |
| 1490 |  | O=C(Nc1cccnc1)c1cc(C(=O)c2cccc(Cl)c2Cl)c[nH]1 [Example 159, 4-(2,3-Dichlorobenzoyl)-N-(pyridin-3-yl)-1H-pyrrole-2-carboxamide] | 24 |
| 1880 |  | O=C(Nc1ccncc1)c1cc(C(=O)c2c(F)cccc2C(F)(F)F)c[nH]1 [Example 183, 4-(2-Fluoro-6-(trifluoromethyl)benzoyl)-N-(pyridin-4-yl)-1H-pyrrole-2-carboxamide] | 7.67 |
| 2250 |  | O=C(NC1CCOCC1)c1cc(C(=O)c2c(F)cccc2F)c[nH]1 [Example 124, 4-(2,6-Difluorobenzoyl)-N-(tetrahydro-2H-pyran-4-yl)-1H-pyrrole-2-carboxamide] | 23.3 |
| 386 |  | O=C(NC1CCNCC1)c1cc(C(=O)c2c(F)cccc2Br)c[nH]1 [Example 197, 4-(2-Bromo-6-fluorobenzoyl)-N-(piperidin-4-yl)-1H-pyrrole-2-carboxamide] | 22 |
|  |  | O=C(NC1CCNCC1)c1cc(C(=O)c2c(Cl)ccc(Cl)c2F)c[nH]1 [Example 4, 4-(3,6-Dichloro-2-fluorobenzoyl)-N-(piperidin-4-yl)-1H-pyrrole-2-carboxamide] | 2.34 |
| 316 |  | O=C(Nc1cncnc1)c1cc(C(=O)c2c(Cl)ccc(Cl)c2F)c[nH]1 [Example 173, 4-(3,6-Dichloro-2-fluorobenzoyl)-N-(pyrimidin-5-yl)-1H-pyrrole-2-carboxamide] | 0.508 |
|  | 1120 | O=C(Nc1cccnc1)c1cc(C(=O)c2c(F)cccc2F)c[nH]1 [Example 122, 4-(2,6-Difluorobenzoyl)-N-(pyridin-3-yl)-1H-pyrrole-2-carboxamide] | 26 |
| 1080 |  | CC(C)(C)OC(=O)N1CCC(NC(=O)c2cc(C(=O)c3c(F)cccc3Cl)c[nH]2)CC1 [Example 193, tert-Butyl 4-(4-(2-chloro-6-fluorobenzoyl)-1H-pyrrole-2-carboxamido)piperidine-1-carboxylate] |  |

| IC50 (ERK5; [2]) [nM] | IC50 (ERK5) [nM] | SMILES | IC50 [1] [µM] |
| --- | --- | --- | --- |
| 1260 |  | O=C(NC1CCNCC1)c1cc(C(=O)c2c(F)cccc2F)c[nH]1 [Example 126, 4-(2,6-Difluorobenzoyl)-N-(piperidin-4-yl)-1H-pyrrole-2-carboxamide] | 18.3 |
| 66.5 |  | O=C(Nc1cccnc1)c1cc(C(=O)c2c(Cl)ccc(Br)c2F)c[nH]1 [Example 181, 4-(3-Bromo-6-chloro-2-fluorobenzoyl)-N-(pyridin-3-yl)-1H-pyrrole-2-carboxamide] |  |
| 2380 |  | O=C(Nc1cccnc1)c1cc(C(=O)c2cc(Cl)ccc2F)c[nH]1 [Example 228, 4-(5-Chloro-2-fluorobenzoyl)-N-(pyridin-3-yl)-1H-pyrrole-2-carboxamide] |  |
| 144 |  | CS(=O)(=O)N1CCC(NC(=O)c2cc(C(=O)c3c(Cl)ccc(Cl)c3F)c[nH]2)CC1 [Example 9, 4-(3,6-Dichloro-2-fluorobenzoyl)-N-(1-(methylsulfonyl)piperidin-4-yl)-1H-pyrrole-2-carboxamide] | 0.826 |
| 292 |  | O=C(NC1CCNCC1)c1cc(C(=O)c2c(F)ccc(Cl)c2F)c[nH]1 [Example 212, 4-(3-Chloro-2,6-difluorobenzoyl)-N-(piperidin-4-yl)-1H-pyrrole-2-carboxamide] |  |
| 2410 |  | O=C(NC1CCNCC1)c1cc(C(=O)c2c(F)cccc2C(F)(F)F)c[nH]1 [Example 161, 4-(2-Fluoro-6-(trifluoromethyl)benzoyl)-N-(piperidin-4-yl)-1H-pyrrole-2-carboxamide] | 16.7 |
| 4970 |  | CCc1cccc(F)c1C(=O)c1c[nH]c(C(=O)NC2CCN(C)CC2)c1 [Example 201, 4-(2-Ethyl-6-fluorobenzoyl)-N-(1-methylpiperidin-4-yl)-1H-pyrrole-2-carboxamide] |  |
| 390 |  | O=C(Nc1ccc(OCCO)nc1)c1cc(C(=O)c2c(Cl)ccc(Cl)c2F)c[nH]1 [Example 281, 4-(3,6-Dichloro-2-fluorobenzoyl)-N-(6-(2-hydroxyethoxy)pyridin-3-yl)-1H-pyrrole-2-carboxamide] |  |
| 36 |  | CN1CCN(c2cc(NC(=O)c3cc(C(=O)c4c(Cl)ccc(Cl)c4F)c[nH]3)ccn2)CC1 [Example 37, 4-(3,6-Dichloro-2-fluorobenzoyl)-N-(2-(4-methylpiperazin-1-yl)pyridin-4-yl)-1H-pyrrole-2-carboxamide] |  |
| 1000 |  | COc1ccncc1NC(=O)c1cc(C(=O)c2c(Cl)ccc(Cl)c2F)c[nH]1 [Example 96, 4-(3,6-Dichloro-2-fluorobenzoyl)-N-(4-methoxypyridin-3-yl)-1H-pyrrole-2-carboxamide] |  |
| 264 |  | O=C(NC1CCN(c2ncccn2)CC1)c1cc(C(=O)c2c(F)cccc2Cl)c[nH]1 [Example 10, 4-(2-Chloro-6-fluorobenzoyl)-N-(1-(pyrimidin-2-yl)piperidin-4-yl)-1H-pyrrole-2-carboxamide] |  |
| 1310 |  | Cc1ccc(NC(=O)c2cc(C(=O)c3c(F)cccc3Cl)c[nH]2)c[n+]1[O-] [Example 118, 5-(4-(2-Chloro-6-fluorobenzoyl)-1H-pyrrole-2-carboxamido)-2-methylpyridine 1-oxide] |  |
| 3340 |  | CCCc1ccncc1NC(=O)c1cc(C(=O)c2c(F)cccc2Cl)c[nH]1 [Example 89, 4-(2-Chloro-6-fluorobenzoyl)-N-(4-propylpyridin-3-yl)-1H-pyrrole-2-carboxamide] |  |
| 7160 |  | O=C(Nc1ccc2cn[nH]c2c1)c1cc(C(=O)c2c(F)cccc2Br)c[nH]1 [Example 157, 4-(2-Bromo-6-fluorobenzoyl)-N-(1H-indazol-6-yl)-1H-pyrrole-2-carboxamide] |  |
| 200 |  | CN1CCC(NC(=O)c2cc(C(=O)c3c(Cl)ccc(F)c3F)c[nH]2)CC1 [Example 223, 4-(6-Chloro-2,3-difluorobenzoyl)-N-(1-methylpiperidin-4-yl)-1H-pyrrole-2-carboxamide] |  |
| 2390 |  | Cc1ncccc1NC(=O)c1cc(C(=O)c2c(F)cccc2Br)c[nH]1 [Example 149, 4-(2-Bromo-6-fluorobenzoyl)-N-(2-methylpyridin-3-yl)-1H-pyrrole-2-carboxamide] |  |
| 9.2 |  | COc1ccc(Cl)c(C(=O)c2c[nH]c(C(=O)Nc3ccc(CC4CCNCC4)nc3)c2)c1F [Example 117, 4-(6-Chloro-2-fluoro-3-methoxybenzoyl)-N-(6-(piperidin-4-ylmethyl)pyridin-3-yl)-1H-pyrrole-2-carboxamide] |  |
| 6030 |  | O=C(Nc1cccnc1)c1cc(C(=O)c2cc(F)ccc2F)c[nH]1 [Example 225, 4-(2,5-Difluorobenzoyl)-N-(pyridin-3-yl)-1H-pyrrole-2-carboxamide] | 4.77 |
|  | 676 | O=C(Nc1ccncc1)c1cc(C(=O)c2c(F)cccc2Br)c[nH]1 [Example 189, 4-(2-Bromo-6-fluorobenzoyl)-N-(pyridin-4-yl)-1H-pyrrole-2-carboxamide] | 4 |
